The values that follow come from patent US20090317326A1, “RADIOFLUORINATION METHODS” (priority 2007, published 2009).

Like-named read-outs stand apart in the source and are kept apart here. Starred links: 1 amine or outer side, 2 acyl side, 3 side chain; linkers in the order of their positions; H or OH if unused. Non-standard residues stand in square brackets, D forms with d. Residues, ends and D or L forms follow the SMILES beside them. *: point of attachment. γ4hIle = CC[C@H](C)[C@@H](CCC(=O)[*:2])N[*:1]; Benzoyl(3-CN,4-F) = N#Cc1cc(C(=O)*)ccc1F; Ava = NCCCCC(=O)O

The subject of data set [1] is human prostate cancer PC-3. Particulars: mouse, in vivo.
Method: (§1) Nude mice bearing human prostate cancer PC-3 were injected with 100 μl radioactive peptide dissolved in PBS containing 135 kBq per animal. For blocking 100 μg unlabeled gastrin-releasing peptide was co-injected. One hour post injection the animals were sacrificed and organs dissected for counting in a gamma-counter. Values are expressed as percent of the injected dose per gram organ weight.
Data set [2] has as its system human prostate cancer PC-3. As to the kind of experiment: Biodistribution of F-18 bombesin analogs in nude mice bearing human prostate cancer PC-3. The conditions noted are these: for Blocking: protocol as above (100 μg unlabeled gastrin-releasing peptide co-injected).
Method: as §1
The test system of another data set is tumor. Particulars: FIG. 5; versus tumor-tissue ratio of 18F-choline (FCH) and 18F-FB-Lys-BN.
The nature of data set [3]: Biodistribution of F-18 bombesin analogs in nude mice bearing human prostate cancer PC-3. Particulars: nude, mouse, 135 kBq per animal, total radioactivity.
Method: as §1

As to “3-CF3,4-F-Benzoyl-Arg-Ava-Gln-Trp-Ala-Val-NMeGly-His-Sta-Leu-NH2 (RXQWAVGHXL; N-methyl; non-natural residues)”, in data set [1], the “Panc. % ID/g” value was found to be 1.42 % ID/g, the T/B came to 4.56 and the T/M is on record as 25.3. This molecule returned a Blocking in data set [2] (Table 1) greater than 70%.

As to “3-CN,4-F-Benzoyl-Arg-Ava-Gln-Trp-Ala-Val-Gly-His(3Me)-Sta-Leu-NH2 (RXQWAVGHXL; non-natural residues)”, in data set [1], the “Panc. % ID/g” value was determined as 4.16 % ID/g, the T/B turned out to be 5.65 and the T/M was 13.84. Further, the Blocking in data set [2] (Table 1) is recorded as 30-90%.

Take “3-CN,4-F-Benzoyl-Arg-Ava-Gln-Trp-Ala-Val-NMeGly-His-Sta-Leu-NH2 (RXQWAVGHXL; N-methyl; non-natural residues)”: in data set [1], the “Panc. % ID/g” value is 1.3 % ID/g, the T/B amounted to 6.82 and the T/M stood at 12.75. Moreover, in data set [2] (Table 1), the Blocking is listed as 40-70%.

On to “4F,3CN-Bnz-Arg-Ava-Gln-Trp-Ala-Val-NMeGly-His(3Me)-Sta-Leu-NH2 (RXQWAVGHXL; N-methyl; non-natural residues)”, for which, in data set [1], the “Panc. % ID/g” value is given as 3.51 % ID/g, the T/B is recorded as 2.57 and the T/M was determined as 16.77. In addition, in data set [2] (Table 1), the Blocking is listed as 50-80%.

The tissue uptake is the percentage of the injected dose found per gram of tissue. With `CC[C@H](C)[C@@H](CCC(=O)N[C@@H](CC(C)C)C(N)=O)NC(=O)[C@H](Cc1c[nH]cn1)NC(=O)CNC(=O)[C@@H](NC(=O)[C@H](C)NC(=O)[C@H](Cc1c[nH]c2ccccc12)NC(=O)[C@H](CCC(N)=O)NC(=O)CCCCNC(=O)c1ccc(F)c(C#N)c1)C(C)C` [3-CN,4-F-Bz-Ava-Gln-Trp-Ala-Val-Gly-His-FA01010-Leu-NH2] ({Benzoyl(3-CN,4-F)-Ava}-QWAVGH[γ4hIle]L-NH2), the “tumor-tissue ratio relative to 18F-choline (FCH) and 18F-FB-Lys-BN” value in the data set with tumor is listed as 2.5 time higher. Besides, the tissue uptake at 1 h in data set [3] (blood) came to 0.05 ± 0.01 %ID/g; in data set [3] (kidneys), 0.24 ± 0.02 %ID/g; in data set [3] (liver), 0.35 ± 0.13 %ID/g; in data set [3] (muscle) it was 0.02 %ID/g; in data set [3] (pancreas), 0.34 ± 0.03 %ID/g; in data set [3] (tumor) it was 1 ± 0.01 %ID/g. Further, the tissue to tissue ratio at 1 h in data set [3] (tumor/blood) was found to be 21 ± 11.9; in data set [3] (tumor/muscle) it was 60 ± 29.5. The Blocking in data set [2] (Table 1) is listed as greater than 70%. The T/B in data set [2] (Table 1, tumor/blood ratio) is 21.03. In addition, the T/M in data set [2] (Table 1, tumor/muscle ratio) is on record as 59.99. Also, the “specificity of targeting (blocking)” value in data set [2] (blocking values low in tumor, unchanged for the other tissue) is recorded as “specific”. In data set [2] (conclusion from biodistribution, 1 h), the accumulation in tumor entry is “accumulates in tumor”.
